Experimental data: ChEMBL document CHEMBL4483862, “Open-source discovery of chemical leads for next-generation chemoprotective antimalarials” (2018)

Test system: Plasmodium berghei
Test: Luciferase/luciferin-expressing antifolate-resistant parasites were used to infect a culture of HepG2 cells that were pre-incubated with compounds. Infected hepatocytes emit light due to the luciferase reaction. Assay results are presented as the percent inhibition of light emission compared to control. […]
Type: functional
Details: sporozoite; for IC90: read-out: LUCIFERASE INFECTION ASSAY - IC90
[1] = read-out: LUCIFERASE INFECTION ASSAY - IC50

| Compound | IC90 | other results |
| --- | --- | --- |
| COc1cc2c(cc1OC)CN(C(=O)CCN1c3ccccc3Sc3ccccc31)CC2 | 8.48 µM | IC50 (HEPG2TOX_HILL_SLOPE 15.5, HEPG2TOX_R_SQUARED 0.469, PBLUC_HILL_SLOPE 3.54, PBLUC_R_SQUARED 0.432, read-out: LUCIFERASE INFECTION ASSAY - IC50): 4.56 µM |
| CC(C)(C)c1ccc(-c2cnc3cnc(-c4cccc(C(N)=O)c4)cn23)cc1 | > 8.91 µM | IC50 (PBLUC_HILL_SLOPE 3.04, PBLUC_R_SQUARED 0.545, read-out: LUCIFERASE INFECTION ASSAY - IC50): 6.86 µM |
| O=C(OCc1ccccc1)C1=C2Sc3ccccc3N2C(=O)NC1(c1ccccc1)C(F)(F)F (stereo unspecified) | > 10 µM | IC50 (FFLUC_HILL_SLOPE 11.9, FFLUC_R_SQUARED 0.439, PBLUC_HILL_SLOPE 2.55, PBLUC_R_SQUARED 0.528, read-out: LUCIFERASE INFECTION ASSAY - IC50): 6.8 µM |
| CCc1c(C)sc2nc(SCC(=O)c3cc(C)n(-c4ccc5c(c4)OCO5)c3C)n(CC)c(=O)c12 | > 10 µM | IC50 (HEPG2TOX_HILL_SLOPE 1.63, HEPG2TOX_R_SQUARED 0.963, PBLUC_HILL_SLOPE 1.91, PBLUC_R_SQUARED 0.412, read-out: LUCIFERASE INFECTION ASSAY - IC50): 3.47 µM |
| CC(C)Cn1c(N)c(C(=O)CSc2nc(=O)c3c4c(sc3[nH]2)CCCC4)c(=O)n(C)c1=O | > 10 µM | IC50 (HEPG2TOX_HILL_SLOPE 0.911, HEPG2TOX_R_SQUARED 0.885, PBLUC_HILL_SLOPE 2, PBLUC_R_SQUARED 0.249, read-out: LUCIFERASE INFECTION ASSAY - IC50): 5.58 µM |
| O=[N+]([O-])c1ccc(Sc2ccc(Cl)cc2)c(-c2cc[nH]n2)c1 | > 9.95 µM | IC50 (FFLUC_HILL_SLOPE 2.47, FFLUC_R_SQUARED 0.0888, HEPG2TOX_HILL_SLOPE 0.21, HEPG2TOX_R_SQUARED 0.178, PBLUC_HILL_SLOPE 0.977, PBLUC_R_SQUARED 0.273, read-out: LUCIFERASE INFECTION ASSAY - IC50): > 9.95 µM |
| COc1cc(/C=N/NC(=S)NC2CC3CC2C2C=CCC32)ccc1O (stereo unspecified) | > 9.23 µM | IC50 (PBLUC_HILL_SLOPE 5.25, PBLUC_R_SQUARED 0.0239, read-out: LUCIFERASE INFECTION ASSAY - IC50): > 9.23 µM |
| Cc1cc(C(=O)Cn2cnc3ccccc32)c(C)n1-c1ccccn1 | > 10 µM | IC50 (PBLUC_HILL_SLOPE 9.42, PBLUC_R_SQUARED 0.321, read-out: LUCIFERASE INFECTION ASSAY - IC50): 9.29 µM |
| c1ccc2c(-c3cc(Nc4ccc5[nH]ccc5c4)ncn3)cccc2c1 | 4.49 µM | IC50 (HEPG2TOX_HILL_SLOPE 1.68, HEPG2TOX_R_SQUARED 0.859, PBLUC_HILL_SLOPE 1.6, PBLUC_R_SQUARED 0.806, read-out: LUCIFERASE INFECTION ASSAY - IC50): 1.13 µM |
| O=C(c1ccc(OCc2cccnc2)cc1)N1CCc2ccccc21 | > 10 µM | IC50 (HEPG2TOX_HILL_SLOPE 3.32, HEPG2TOX_R_SQUARED 0.856, read-out: LUCIFERASE INFECTION ASSAY - IC50): > 10 µM |
| COc1ccc(C(N)=O)c(OCCOc2ccc(C(C)C)c(C)c2)c1 | > 10 µM | IC50 (PBLUC_HILL_SLOPE 1.7, PBLUC_R_SQUARED 0.184, read-out: LUCIFERASE INFECTION ASSAY - IC50): 4.61 µM |
| COCCCNC(=S)Nc1cccc2ccccc12 | > 12 µM | IC50 (HEPG2TOX_HILL_SLOPE 10.4, HEPG2TOX_R_SQUARED 0.777, PBLUC_HILL_SLOPE 18.1, PBLUC_R_SQUARED 0.604, read-out: LUCIFERASE INFECTION ASSAY - IC50): 11.8 µM |
| Cc1[nH]c2ccccc2c1Sc1ccc(Cl)cc1 | > 12.1 µM | IC50 [1]: > 12.1 µM |
| O=C(Nc1ccccc1)Nc1cccc(C(F)(F)F)c1 | 4.4 µM | IC50 (PBLUC_HILL_SLOPE 13.3, PBLUC_R_SQUARED 0.408, read-out: LUCIFERASE INFECTION ASSAY - IC50): 3.73 µM |
| Cn1ccc2cc(-c3cn4c(-c5ccc(CO)cc5)cnc4cn3)ccc21 | 0.829 µM | IC50 (FFLUC_HILL_SLOPE 16.7, FFLUC_R_SQUARED 0.117, HEPG2TOX_HILL_SLOPE 0.88, HEPG2TOX_R_SQUARED 0.915, PBLUC_HILL_SLOPE 3.4, PBLUC_R_SQUARED 0.717, read-out: LUCIFERASE INFECTION ASSAY - IC50): 0.435 µM |
| CCOC(=O)c1sc(SCc2ccccc2)c2c1CC(c1ccc(C)cc1)CC2O (stereo unspecified) | > 7.52 µM | IC50 (FFLUC_HILL_SLOPE 27.4, FFLUC_R_SQUARED 0.148, read-out: LUCIFERASE INFECTION ASSAY - IC50): > 7.52 µM |
| O=C(CCC(=O)c1ccc2c(c1)OCCO2)OCn1nnc2ccccc2c1=O | > 10 µM | IC50 [1]: > 10 µM |
| O=C(Nc1ccc(Cl)cc1)Nc1ccc2c(c1)no[n+]2[O-] | 8.03 µM | IC50 (HEPG2TOX_HILL_SLOPE 58.7, HEPG2TOX_R_SQUARED 0.822, PBLUC_HILL_SLOPE 3.98, PBLUC_R_SQUARED 0.47, read-out: LUCIFERASE INFECTION ASSAY - IC50): 4.62 µM |
| CC(=O)Nc1cnc(-c2ccccc2N(C)C)cn1 | > 12.9 µM | IC50 [1]: > 12.9 µM |

| Compound | IC90 | other results |
| --- | --- | --- |
| CC(NC(=O)c1ccccc1NC(=O)CN1CCN(C/C=C/c2ccccc2)CC1)c1ccccc1 (stereo unspecified) | 8.52 µM | IC50 (PBLUC_HILL_SLOPE 3.6, PBLUC_R_SQUARED 0.261, read-out: LUCIFERASE INFECTION ASSAY - IC50): 4.62 µM |
| CCCn1c(=O)n(C)c(=O)c2c(SCc3cccc([N+](=O)[O-])c3)nc(CC(C)C)nc21 | > 10 µM | IC50 [1]: > 10 µM |
| Cc1cc(C(=O)CSc2nc3ccccc3[nH]2)c(C)n1CC1CCCO1 (stereo unspecified) | 4.43 µM | IC50 (HEPG2TOX_HILL_SLOPE 3.03, HEPG2TOX_R_SQUARED 0.337, PBLUC_HILL_SLOPE 0.528, 1.10, PBLUC_R_SQUARED 0.856, 0.809, read-out: LUCIFERASE INFECTION ASSAY - IC50): 0.144 µM |
| Cc1nn2c(NCCCn3ccnc3)cc(C(C)(C)C)nc2c1-c1ccccc1 | 3.07 µM | IC50 (FFLUC_HILL_SLOPE 16.6, FFLUC_R_SQUARED 0.48, HEPG2TOX_HILL_SLOPE 8.1, HEPG2TOX_R_SQUARED 0.76, PBLUC_HILL_SLOPE 15.5, PBLUC_R_SQUARED 0.267, read-out: LUCIFERASE INFECTION ASSAY - IC50): 2.66 µM |
| c1ccc(CNc2nn3c(-c4ccccc4)cnc3s2)cc1 | 4.14 µM | IC50 (PBLUC_HILL_SLOPE 12.3, PBLUC_R_SQUARED 0.487, read-out: LUCIFERASE INFECTION ASSAY - IC50): 3.47 µM |
| FC(F)(F)c1ccc(/C=N/Nc2ccc(C(F)(F)F)cc2)cc1 | > 9.93 µM | IC50 (PBLUC_HILL_SLOPE 3.36, PBLUC_R_SQUARED 0.386, read-out: LUCIFERASE INFECTION ASSAY - IC50): 5.72 µM |
| CC(C)c1ccc(NC(=O)N2[C@@H]3CC[C@@H](C3)[C@H]2c2nc3c(OCC4CC4)cccc3[nH]2)cc1 | > 10 µM | IC50 (PBLUC_HILL_SLOPE 2.47, PBLUC_R_SQUARED 0.452, read-out: LUCIFERASE INFECTION ASSAY - IC50): 6.2 µM |
| Cc1ccc(S(=O)(=O)N(Cc2ccc(C(=O)NC3CC3)cc2)C2CC2)c(C)c1 | 0.498 µM | IC50 (PBLUC_HILL_SLOPE 1.22, PBLUC_R_SQUARED 0.762, read-out: LUCIFERASE INFECTION ASSAY - IC50): 0.0818 µM |
| COc1cc(/C=C(\C#N)c2nc3ccccc3[nH]2)ccc1OC(=O)c1cc2c(C)nn(-c3ccccc3)c2s1 | > 10 µM | IC50 (FFLUC_HILL_SLOPE 1.24, FFLUC_R_SQUARED 0.777, PBLUC_HILL_SLOPE 2.61, PBLUC_R_SQUARED 0.768, read-out: LUCIFERASE INFECTION ASSAY - IC50): 5.91 µM |
| CC(=O)c1cccc(-c2cnc3ccc(-c4ccc(F)cc4)nn23)c1 | 4.45 µM | IC50 (HEPG2TOX_HILL_SLOPE 2.73, HEPG2TOX_R_SQUARED 0.88, PBLUC_HILL_SLOPE 3.37, PBLUC_R_SQUARED 0.558, read-out: LUCIFERASE INFECTION ASSAY - IC50): 2.32 µM |
| Cc1c(C(=O)Nc2nc3c(s2)CCCCC3)[nH]c2c1C(=O)CC(C)(C)C2 | > 10 µM | IC50 (PBLUC_HILL_SLOPE 1.1, PBLUC_R_SQUARED 0.304, read-out: LUCIFERASE INFECTION ASSAY - IC50): 2.21 µM |
| Cc1cc(C)n(-c2nc(-c3ccccc3)cc(N3CCOCC3)n2)n1 | 6.26 µM | IC50 (PBLUC_HILL_SLOPE 5.14, PBLUC_R_SQUARED 0.351, read-out: LUCIFERASE INFECTION ASSAY - IC50): 4.08 µM |
| C[C@@H]1OC(O[C@H]2C[C@@H](O)[C@]3(CO)[C@@H]4C(CC[C@]3(O)C2)[C@@]2(O)CC[C@H](C3=CC(=O)OC3)[C@@]2(C)C[C@H]4O)[C@H](O)[C@H](O)[C@H]1O (stereo partly specified) | 0.179 µM | IC50 (HEPG2TOX_HILL_SLOPE 1.56, HEPG2TOX_R_SQUARED 0.89, PBLUC_HILL_SLOPE 1.86, PBLUC_R_SQUARED 0.797, read-out: LUCIFERASE INFECTION ASSAY - IC50): 0.0548 µM |
| CC(C)(Oc1ccc(C#N)cc1)C(=O)O | > 16.1 µM | IC50 [1]: > 16.1 µM |
| S=C(N/N=C/c1ccc(Cl)cc1)Nc1cc(Cl)ccc1Cl | > 9.2 µM | IC50 [1]: > 9.2 µM |
| Clc1ccc(OCc2cccnc2)c(CN2CCN(c3ncccn3)CC2)c1 | > 10 µM | IC50 [1]: > 10 µM |
| Cc1cc(C(=O)CSc2nnc(C3CC3)o2)c(C)n1-c1ccc2c(c1)CCC2 | > 10 µM | IC50 (HEPG2TOX_HILL_SLOPE 7.74, HEPG2TOX_R_SQUARED 0.677, read-out: LUCIFERASE INFECTION ASSAY - IC50): > 10 µM |
| CCC(C)c1ccc(-c2cc(C(=O)OCC(=O)N3c4ccccc4NC(=O)C3(C)C)c3ccccc3n2)cc1 (stereo unspecified) | > 10 µM | IC50 [1]: 8.86 µM |
| O=C(Nc1ncc(Cc2cccc(C(F)(F)F)c2)s1)c1ccc(-n2ccnc2)nc1 | 7.33 µM | IC50 (FFLUC_HILL_SLOPE 11.4, FFLUC_R_SQUARED 0.309, HEPG2TOX_HILL_SLOPE 1.14, HEPG2TOX_R_SQUARED 0.957, PBLUC_HILL_SLOPE 2.81, PBLUC_R_SQUARED 0.544, read-out: LUCIFERASE INFECTION ASSAY - IC50): 3.35 µM |
